According to PubChem BioAssay AID1963984 (Molecular Pharmacology Branch, DTP, NCI, 2024):

Test system: 233499-124-R-J3-PDC spheroids with HUVEC/MSC, viability
Assay: Anticancer human tumor 233499-124-R-J3-PDC patient-derived colon adenocarcinoma cell line growth inhibition [PI3K]
Settings: for IC50: curve of first compound; for viability, T/C: stronger effect = lower value; active = viability on the fitted dose curve at most 10% of control; inactive = the rest
Summary of the method: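 Spheroid viability read-out. Co-cultures contained the tumor line plus HUVEC and human MSCs. Each agent was paired with a PI3K inhibitor (inavolisib, alpelisib, duvelisib, copanlisib) across half-log dilutions starting at clinical Cmax, or at 10 microM when Cmax was unknown.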
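Note: spheroids exposed to agents for seven days before readout.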
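Throughout, for viability, T/C: percent viability relative to DMSO vehicle control taken as 100%.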

Cn1ncnc1[C@H]1c2n[nH]c(=O)c3cc(F)cc(c23)N[C@@H]1c1ccc(F)cc1 + COc1c(OCCCN2CCOCC2)ccc2c3n(c(=NC(=O)c4cnc(N)nc4)nc12)CCN3
> 100 nM: IC50 (second compound 0.00316 µM) | IC50 (second compound 0.01 µM) | IC50 (second compound 0.0316 µM) | IC50 (second compound 0.1 µM)
inactive: viability, T/C (second compound 0.00316 µM, first compound 0.000316 µM) 97.7% | viability, T/C (second compound 0.00316 µM, first compound 0.001 µM) 111% | viability, T/C (second compound 0.00316 µM, first compound 0.00316 µM) 97.2% | viability, T/C (second compound 0.00316 µM, first compound 0.01 µM) 111% | viability, T/C (second compound 0.00316 µM, first compound 0.0316 µM) 90.2% | viability, T/C (second compound 0.00316 µM, first compound 0.1 µM) 85.9% | viability, T/C (second compound 0.01 µM, first compound 0.000316 µM) 90.1% | viability, T/C (second compound 0.01 µM, first compound 0.001 µM) 92.3% | viability, T/C (second compound 0.01 µM, first compound 0.00316 µM) 90% | viability, T/C (second compound 0.01 µM, first compound 0.01 µM) 78.2% | viability, T/C (second compound 0.01 µM, first compound 0.0316 µM) 90.9% | viability, T/C (second compound 0.01 µM, first compound 0.1 µM) 66.9% | viability, T/C (second compound 0.0316 µM, first compound 0.000316 µM) 94% | viability, T/C (second compound 0.0316 µM, first compound 0.001 µM) 81.4% | viability, T/C (second compound 0.0316 µM, first compound 0.00316 µM) 89.2% | viability, T/C (second compound 0.0316 µM, first compound 0.01 µM) 83.9% | viability, T/C (second compound 0.0316 µM, first compound 0.0316 µM) 80.9% | viability, T/C (second compound 0.0316 µM, first compound 0.1 µM) 79.6% | viability, T/C (second compound 0.1 µM, first compound 0.000316 µM) 81.1% | viability, T/C (second compound 0.1 µM, first compound 0.001 µM) 75.3% | viability, T/C (second compound 0.1 µM, first compound 0.00316 µM) 75.9% | viability, T/C (second compound 0.1 µM, first compound 0.01 µM) 76.7% | viability, T/C (second compound 0.1 µM, first compound 0.0316 µM) 65.9% | viability, T/C (second compound 0.1 µM, first compound 0.1 µM) 66.7% | viability, T/C (second compound 0.316 µM, first compound 0.000316 µM) 34.7% | viability, T/C (second compound 0.316 µM, first compound 0.001 µM) 27.6% | viability, T/C (second compound 0.316 µM, first compound 0.00316 µM) 36.6% | viability, T/C (second compound 0.316 µM, first compound 0.01 µM) 33.9% | viability, T/C (second compound 0.316 µM, first compound 0.0316 µM) 28.4% | viability, T/C (second compound 0.316 µM, first compound 0.1 µM) 35%
active: viability, T/C (second compound 1 µM, first compound 0.000316 µM) 4.32% | viability, T/C (second compound 1 µM, first compound 0.001 µM) 8.27% | viability, T/C (second compound 1 µM, first compound 0.00316 µM) 5.26% | viability, T/C (second compound 1 µM, first compound 0.01 µM) 9.55% | viability, T/C (second compound 1 µM, first compound 0.0316 µM) 11.9% | viability, T/C (second compound 1 µM, first compound 0.1 µM) 11.5%
< 0.316 nM: IC50 (second compound 0.316 µM) | IC50 (second compound 1 µM)
